Test results taken from patent US7056935B2, “Rotamase enzyme activity inhibitors” (GPI NIL Holdings, Inc., priority 1995, dated 2006).
Where two headings read alike, the source gives them in different places.

Tests used:
[1] = test system: chick dorsal root ganglia (DRG) explants; assay: Chick dorsal root ganglion cultures and neurite outgrowth; type: cell-based; settings: read-out: ED50, nM Neurite Outgrowth in DRG Cultures
Description: Dorsal root ganglia were dissected from chick embryos of ten day gestation. Whole ganglion explants were cultured on thin layer Matrigel-coated 12 well plates with Liebovitz L15 plus high glucose media supplemented with 2 mM glutamine and 10% fetal calf serum, and also containing 10 μM cytosine β-D arabinofuranoside (Ara C) at 37° C. in an environment containing 5% CO2. Twenty-four hours later, the DRGs were treated with various concentrations of nerve growth factor (NGF), immunophilin ligands or combinations of NGF plus drugs. Forty-eight hours after drug treatment, the ganglia were visualized under phase contrast or Hoffman Modulation contrast with a Zeiss Axiovert inverted microscope. Photomicrographs of the explants were made, and neurite outgrowth was quantitated. Neurites longer than the DRG diameter were counted as positive, with total number of neurites quantitated per each experimental condition. Three to four DRGs were cultured per well, and each treatment was performed in duplicate.

FKBP = FKBP (Homo sapiens, UniProt P62942); assay: Ki test procedure: inhibition of peptidyl-prolyl isomerase (rotamase) activity, chymotrypsin-coupled assay; type: biochemical; settings: apparent Ki, substrate N-succinyl-Ala-Phe-Pro-Phe-p-nitroanilide
[2] = drug alone, chick embryo DRG explants, 48 hours after drug treatment

Chain of FKBP (P62942 whole entry): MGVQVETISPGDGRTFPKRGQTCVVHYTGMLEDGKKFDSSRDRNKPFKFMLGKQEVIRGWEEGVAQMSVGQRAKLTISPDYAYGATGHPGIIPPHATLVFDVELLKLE

Compound | EC50 ([1]; Gallus gallus, 48 h) [nM] | also measured
O=C(C(=O)N1CCCCC1C(=O)OC(CCCc1ccccc1)CCCc1ccccc1)c1ccccc1 (centres unmarked) [Compound 28] | – | EC50 [1, 2]: 0.0044 nM
CCC(C)(C)C(=O)C(=O)N1CCC[C@H]1C(=O)OC/C=C/c1cc(OC)c(OC)c(OC)c1 [Compound 20, 3-(3,4,5-trimethoxyphenyl)-1-prop-2-(E)-enyl (2S)-1-(3,3-dimethyl-1,2-dioxopentyl)-2-pyrrolidine carboxylate] | 190 | Ki (FKBP; Table I): 125 nM
O=C(C(=O)N1CCCCC1C(=O)OCCCCc1ccccc1)c1ccccc1 (centres unmarked) [Compound 4, 4-Phenyl-1-butyl N-(phenylglyoxyl)-2-piperidinecarboxylate] | 25 to 100 | –
COc1cc(C(=O)C(=O)N2CCCCC2C(=O)OC(CCCc2ccccc2)CCc2cccnc2)cc(OC)c1OC [Compound 30, 1-Phenyl-6-(3-pyridyl)-3-hexyl (S)-N-(3,4,5-trimethoxyphenylglyoxyl)pipecolate] | 0.95 | –
COc1ccc(CCCCOC(=O)C2CCCCN2C(=O)C(=O)c2ccccc2)cc1 (centres unmarked) [Compound 3] | 0.5 | –
COc1ccc(CCCCOC(=O)C2CCCCN2C(=O)C(=O)c2cc(OC)c(OC)c(OC)c2)cc1 [Compound 16, 4-(4-Methoxyphenyl)butyl (S)-N-(3,4,5-trimethoxyphenylglyoxyl)pipecolate] | 0.03 | –
COc1cc(C(=O)C(=O)N2CCCCC2C(=O)OC(CCCc2ccccc2)CCCc2ccccn2)cc(OC)c1OC [Compound 31, 1-Phenyl-7-(2-pyridyl)-4-heptyl (S)-N-(3,4,5-trimethoxyphenylglyoxyl)pipecolate] | 25 | Ki (FKBP; Table II): 1 nM
CCC(C)(C)C(=O)C(=O)N1CCC[C@H]1C(=O)OCCCc1cccnc1 [Compound 23, 3-(3-Pyridyl)-1-propyl (2S)-1-(3,3-dimethyl-1,2-dioxopentyl)-2-pyrrolidinecarboxylate] | 0.05 | –
COc1cc(C(=O)C(=O)N2CCCCC2C(=O)OC(CCCc2ccccc2)CCCc2ccccc2)cc(OC)c1OC [Compound 29, 1,7-Diphenyl-4-heptyl (S)-N-(3,4,5-trimethoxyphenylglyoxyl)pipecolate] | – | EC50 [1, 2]: 0.61 nM
O=C(C(=O)N1CCC[C@H]1C(=O)OCCCc1ccccc1)C1CCCCC1 [Compound 24, 3-Phenyl-1-propyl (2S)-1-(cyclohexylglyoxyl)-2-pyrrolidinecarboxylate] | 0.13 | –
O=C(C(=O)N1CCCCC1C(=O)OCCc1ccccc1)c1ccccc1 (centres unmarked) [Compound 5, 2-Phenyl-1-ethyl N-(phenylglyoxyl)-2-piperidinecarboxylate] | 25 to 100 | –
COc1cc(C(=O)C(=O)N2CCCCC2C(=O)OCCCCc2ccccc2)cc(OC)c1OC [Compound 14, 4-Phenylbutyl (S)-N-(3,4,5-trimethoxyphenylglyoxyl)pipecolate] | 1 to 5 | –
COC(=O)C(=O)N1CCCCC1C(=O)OCc1ccccc1 (centres unmarked) [Compound 7, Benzyl N-(methoxyglyoxyl)-2-piperidinecarboxylate] | > 10000 | –
CCC(C)(C)C(=O)C(=O)N1CCC[C@H]1C(=O)OCCCc1cc(OC)c(OC)c(OC)c1 [Compound 19, 3-(3,4,5-trimethoxyphenyl)-1-propyl (2S)-1-(3,3-dimethyl-1,2-dioxopentyl)-2-pyrrolidine-carboxylate] | 80 | Ki (FKBP; Table I): 25 nM
O=C(C(=O)N1CCCCC1C(=O)OCc1ccccc1)c1ccccc1 (centres unmarked) [Compound 1, Benzyl N-(phenylglyoxyl)-2-piperidinecarboxylate] | 25 to 100 | –
CCC(C)(C)C(=O)C(=O)N1CCC[C@H]1C(=O)OCCCc1ccccc1 [Compound 17, 3-phenyl-1-propyl (2S)-1-(3,3-dimethyl-1,2-dioxopentyl)-2-pyrrolidinecarboxylate] | 0.053 | –
CCC(C)(C)C(=O)C(=O)N1CCC[C@H]1C(=O)OC/C=C/c1ccc(Cl)c(Cl)c1 [Compound 21, 3-(4,5-Dichlorophenyl)-1-prop-2-(E)-enyl (2S)-1-(3,3-dimethyl-1,2-dioxopentyl)-2-pyrrolidine carboxylate] | 85 | Ki (FKBP; Table I): 2500 nM
CCC(C)(C)C(=O)C(=O)N1CCC[C@H]1C(=O)OC/C=C/c1ccccc1 [Compound 18, 3-phenyl-1-prop-2-(E)-enyl (2S)-1-(3,3-dimethyl-1,2-dioxopentyl)-2-pyrrolidinecarboxylate] | 105 | –
CCC(C)(C)C(=O)C(=O)N1CCC[C@H]1C(=O)OC/C=C/c1cc(OC)ccc1OC [Compound 22, 3-(2,5-Dimethoxyphenyl)-1-prop-2(E)-enyl (2S)-1-(3,3-dimethyl-1,2-dioxopentyl)-2-pyrrolidinecarboxylate] | 0.8 | –
COc1ccc(CCCC(CCCc2ccccc2)OC(=O)C2CCCCN2C(=O)C(=O)c2cc(OC)c(OC)c(OC)c2)cc1 [Compound 32, 1-Phenyl-7-(4-methoxyphenyl)-4-heptyl (S)-N-(3,4,5-trimethoxyphenylglyoxyl)-pipecolate] | 0.5 | Ki (FKBP; Table II): 3 nM
O=C(C(=O)N1CCCCC1C(=O)OCCCc1ccccc1)c1ccccc1 (centres unmarked) [Compound 2, 3-Phenyl-1-propyl N-(phenylglyoxyl)-2-piperidinecarboxylate] | 10 to 20 | –
